Assay results taken from patent US9174994B2, “Enhanced treatment regimens using mTor inhibitors” (INTELLIKINE LLC, priority 2011, dated 2015).

Experiment: Phase I clinical trial: treatment-emergent adverse events (patients, n (%)), dose limiting toxicity, MTD
Format: in vivo
[1] = Table 8: Total QD Dosing (N = 25)
[2] = Table 8: Total QDx3d QW (N = 14)

Protocol: Safety, maximum tolerated dose (MTD), pharmacokinetics (PK) and preliminary antitumor activity were evaluated.
Pharmacodynamic (PD) endpoints were evaluated in surrogate (peripheral blood cells [PBCs], skin) and tumor tissues for the phosphorylation of TORC1-dependent markers (4EBP1/S6), and TORC2-dependent markers (AKT/PRAS40).

With `CC(C)n1nc(-c2ccc3oc(N)nc3c2)c2c(N)ncnc21` [compound A] as the compound, how does the Eye infection (Table 8: Total (N = 60)) read?
Its Eye infection is 1 (2%).

What about the Fatigue (Table 8: Total (N = 60)) of the same compound?
The Fatigue was 1 (2%).

And the Gastritis (Table 8: Total (N = 60))?
The Gastritis was 1 (2%).

What about the Gravitational oedema (Table 8: Total (N = 60)) of the same compound?
The Gravitational oedema was 1 (2%).

What about the Headache (Table 8: Total (N = 60)) of the same compound?
The Headache was 1 (2%).

What about the Hyperbilirubinaemia (Table 8: Total (N = 60)) of the same compound?
Its Hyperbilirubinaemia is 1 (2%).

And the Hypertransaminasaemia (Table 8: Total (N = 60))?
Its Hypertransaminasaemia is 1 (2%).

And the Hypertriglyceridaemia (Table 8: Total (N = 60))?
Its Hypertriglyceridaemia is 1 (2%).

And the Hypocalcaemia (Table 8: Total (N = 60))?
Its Hypocalcaemia is 1 (2%).

And the Hypomagnesaemia (Table 8: Total (N = 60))?
The Hypomagnesaemia was 1 (2%).

What about the Hypotension (Table 8: Total (N = 60)) of the same compound?
Its Hypotension is 1 (2%).

What about the Insomnia (Table 8: Total (N = 60)) of the same compound?
The Insomnia was 1 (2%).

What about the Low fever (Table 8: Total (N = 60)) of the same compound?
The Low fever was 1 (2%).

And the Malaise (Table 8: Total (N = 60))?
The Malaise was 1 (2%).

And the Nausea (Table 8: Total (N = 60))?
The Nausea was 1 (2%).

What about the Oral discomfort (Table 8: Total (N = 60)) of the same compound?
The Oral discomfort was 1 (2%).

What about the Orthostatic hypotension (Table 8: Total (N = 60)) of the same compound?
Its Orthostatic hypotension is 1 (2%).

And the Palmar-plantar erythrodysaesthesia syndrome (Table 8: Total (N = 60))?
The Palmar-plantar erythrodysaesthesia syndrome was 1 (2%).

What about the Panniculitis (Table 8: Total (N = 60)) of the same compound?
Its Panniculitis is 1 (2%).

What about the Platelet count decreased (Table 8: Total (N = 60)) of the same compound?
The Platelet count decreased was 1 (2%).

What about the Polyuria (Table 8: Total (N = 60)) of the same compound?
The Polyuria was 1 (2%).

And the Pyrexia (Table 8: Total (N = 60))?
Its Pyrexia is 1 (2%).

What about the Rash (Table 8: Total (N = 60)) of the same compound?
The Rash was 1 (2%).

And the Rash macular (Table 8: Total (N = 60))?
The Rash macular was 1 (2%).

And the Skin discolouration (Table 8: Total (N = 60))?
The Skin discolouration was 1 (2%).

What about the Skin exfoliation (Table 8: Total (N = 60)) of the same compound?
The Skin exfoliation was 1 (2%).

What about the Urinary tract infection (Table 8: Total (N = 60)) of the same compound?
Its Urinary tract infection is 1 (2%).

And the Urine tract infection (Table 8: Total (N = 60))?
Its Urine tract infection is 1 (2%).

And the Vomiting (Table 8: Total (N = 60))?
Its Vomiting is 1 (2%).

And the WEAKNESS (Table 8: Total (N = 60))?
Its WEAKNESS is 1 (2%).

What about the Weight decreased (Table 8: Total (N = 60)) of the same compound?
The Weight decreased was 1 (2%).

What about the Catheter site inflammation [1] of the same compound?
Its Catheter site inflammation is 0 (0%).

What about the Catheter site pain [1] of the same compound?
The Catheter site pain was 0 (0%).

And the Coagulopathy [1]?
The Coagulopathy was 1 (4%).

What about the Confusional state [1] of the same compound?
Its Confusional state is 1 (4%).

And the Cough [1]?
Its Cough is 1 (4%).

What about the DIARRHEA [1] of the same compound?
The DIARRHEA was 0 (0%).

What about the Dizziness [1] of the same compound?
Its Dizziness is 1 (4%).

What about the Dyspnoea exertional [1] of the same compound?
Its Dyspnoea exertional is 1 (4%).

And the Eye infection [1]?
The Eye infection was 1 (4%).

What about the Fatigue [1] of the same compound?
Its Fatigue is 0 (0%).

And the Gastritis [1]?
Its Gastritis is 1 (4%).

What about the Gravitational oedema [1] of the same compound?
Its Gravitational oedema is 1 (4%).

And the Headache [1]?
The Headache was 0 (0%).

What about the Hyperbilirubinaemia [1] of the same compound?
The Hyperbilirubinaemia was 0 (0%).

What about the Hypertransaminasaemia [1] of the same compound?
The Hypertransaminasaemia was 0 (0%).

And the Hypertriglyceridaemia [1]?
Its Hypertriglyceridaemia is 0 (0%).

And the Hypocalcaemia [1]?
Its Hypocalcaemia is 1 (4%).

What about the Hypomagnesaemia [1] of the same compound?
The Hypomagnesaemia was 0 (0%).

And the Hypotension [1]?
Its Hypotension is 0 (0%).

And the Insomnia [1]?
Its Insomnia is 1 (4%).

And the Low fever [1]?
Its Low fever is 0 (0%).

And the Malaise [1]?
Its Malaise is 0 (0%).

What about the Nausea [1] of the same compound?
Its Nausea is 0 (0%).

What about the Oral discomfort [1] of the same compound?
The Oral discomfort was 0 (0%).

What about the Orthostatic hypotension [1] of the same compound?
Its Orthostatic hypotension is 1 (4%).

And the Palmar-plantar erythrodysaesthesia syndrome [1]?
The Palmar-plantar erythrodysaesthesia syndrome was 0 (0%).

And the Panniculitis [1]?
The Panniculitis was 1 (4%).

And the Platelet count decreased [1]?
The Platelet count decreased was 0 (0%).

And the Polyuria [1]?
The Polyuria was 1 (4%).

And the Pyrexia [1]?
The Pyrexia was 0 (0%).

And the Rash [1]?
Its Rash is 0 (0%).

What about the Rash macular [1] of the same compound?
The Rash macular was 0 (0%).

What about the Skin discolouration [1] of the same compound?
Its Skin discolouration is 1 (4%).

And the Skin exfoliation [1]?
The Skin exfoliation was 1 (4%).

What about the Urinary tract infection [1] of the same compound?
The Urinary tract infection was 0 (0%).

And the Urine tract infection [1]?
The Urine tract infection was 0 (0%).

What about the Vomiting [1] of the same compound?
Its Vomiting is 0 (0%).

What about the WEAKNESS [1] of the same compound?
The WEAKNESS was 0 (0%).

What about the Weight decreased [1] of the same compound?
Its Weight decreased is 1 (4%).

And the Catheter site inflammation [2]?
Its Catheter site inflammation is 1 (7%).

What about the Catheter site pain [2] of the same compound?
The Catheter site pain was 1 (7%).

What about the Coagulopathy [2] of the same compound?
Its Coagulopathy is 0 (0%).

And the Confusional state [2]?
Its Confusional state is 0 (0%).

And the Cough [2]?
Its Cough is 0 (0%).

And the DIARRHEA [2]?
Its DIARRHEA is 0 (0%).

And the Dizziness [2]?
The Dizziness was 0 (0%).

What about the Dyspnoea exertional [2] of the same compound?
Its Dyspnoea exertional is 0 (0%).

And the Eye infection [2]?
Its Eye infection is 0 (0%).

And the Fatigue [2]?
Its Fatigue is 1 (7%).

What about the Gastritis [2] of the same compound?
Its Gastritis is 0 (0%).

And the Gravitational oedema [2]?
The Gravitational oedema was 0 (0%).

And the Headache [2]?
The Headache was 1 (7%).

What about the Hyperbilirubinaemia [2] of the same compound?
Its Hyperbilirubinaemia is 1 (7%).

What about the Hypertransaminasaemia [2] of the same compound?
Its Hypertransaminasaemia is 1 (7%).

And the Hypertriglyceridaemia [2]?
Its Hypertriglyceridaemia is 1 (7%).

And the Hypocalcaemia [2]?
The Hypocalcaemia was 0 (0%).

And the Hypomagnesaemia [2]?
Its Hypomagnesaemia is 1 (7%).

What about the Hypotension [2] of the same compound?
The Hypotension was 1 (7%).

And the Insomnia [2]?
The Insomnia was 0 (0%).

And the Low fever [2]?
The Low fever was 1 (7%).

And the Malaise [2]?
Its Malaise is 0 (0%).

What about the Nausea [2] of the same compound?
Its Nausea is 0 (0%).

What about the Oral discomfort [2] of the same compound?
The Oral discomfort was 0 (0%).

What about the Orthostatic hypotension [2] of the same compound?
The Orthostatic hypotension was 0 (0%).

What about the Palmar-plantar erythrodysaesthesia syndrome [2] of the same compound?
Its Palmar-plantar erythrodysaesthesia syndrome is 1 (7%).

And the Panniculitis [2]?
The Panniculitis was 0 (0%).

And the Platelet count decreased [2]?
Its Platelet count decreased is 1 (7%).

What about the Polyuria [2] of the same compound?
Its Polyuria is 0 (0%).

And the Pyrexia [2]?
Its Pyrexia is 1 (7%).

And the Rash [2]?
Its Rash is 0 (0%).

What about the Rash macular [2] of the same compound?
The Rash macular was 1 (7%).

And the Skin discolouration [2]?
Its Skin discolouration is 0 (0%).

What about the Skin exfoliation [2] of the same compound?
The Skin exfoliation was 0 (0%).

What about the Urinary tract infection [2] of the same compound?
Its Urinary tract infection is 1 (7%).

What about the Urine tract infection [2] of the same compound?
The Urine tract infection was 0 (0%).

And the Vomiting [2]?
Its Vomiting is 0 (0%).

And the WEAKNESS [2]?
The WEAKNESS was 0 (0%).
